Assay results: ChEMBL document CHEMBL5380844, “Discovery of a Novel, Potent, Orally Active, and Safe Inhibitor Targeting Human Mitochondrial RNA Polymerase” (J Med Chem, 2023)
Active and inactive are the calls of the source. The calls are words filed in the database; no cut-off is given here.

Experiments:
[1] = tested on: A2780; test: Effect on POLRMT mRNA level in human A2780 cells by RT-qPCR analysis; format: functional, cell-based
[2] = tested on: A2780; test: Downregulation of UQCR level in human A2780 cells by Western blot analysis; format: functional, cell-based; settings: dose <= 500.0 nM
[3] = tested on: A2780; test: Induction of apoptosis in human A2780 cells assessed as necrotic cells at 200 nM incubated for 96 hrs by Annexin-V/FITC and PI staining based flow cytometry analysis (reference value: 2.07%); format: functional
[4] = Toxicity in Balb/c mouse assessed as effect on liver at 100 mg/kg by H and E staining based analysis; format: organism-based; settings: in vivo
[5] = tested on: A2780; test: Antitumor activity against human A2780 cells xenografted in BALB/c nude mouse model assessed as reduction in COX1 level at 100 mg/kg, po by immunoblotting analysis; format: functional, organism-based
[6] = tested on: A2780; test: Induction of apoptosis in human A2780 cells assessed as increase in cleaved PARP cleavage level at upto 500 nM by immunoblot analysis; format: functional, cell-based
[7] = tested on: A2780; test: Downregulation of COX1 level in human A2780 cells by Western blot analysis; format: functional, cell-based; settings: dose <= 500.0 nM
[8] = tested on: A2780; test: Induction of intracellular ROS generation in human A2780 cells at upto 500 nM measured after 96 hrs by DCFH-DA staining based immunofluorescence assay; format: functional, cell-based
[9] = tested on: A2780; test: Effect on ATP5A level in human A2780 cells at upto 500 nM by Western blot analysis; format: functional, cell-based
[10] = tested on: A2780; test: Induction of cell cycle arrest in human A2780 cells assessed as accumulation of cells at G2 phase at 200 nM measured after 96 hrs by PI staining based flow cytometry analysis (reference value: 4.49%); format: functional
[11] = tested on: A2780; test: Antitumor activity against human A2780 cells xenografted in BALB/c nude mouse model assessed as reduction in beta-actin level at 100 mg/kg, po by immunoblotting analysis; format: functional, organism-based
[12] = tested on: A2780; test: Inhibition of MT-ATP6 expression in human A2780 cells at 100 nM incubated for 12 hrs by RNA sequencing analysis; format: functional, cell-based
[13] = tested on: A2780; test: Inhibition of MT-CO3 expression in human A2780 cells at 100 nM incubated for 12 hrs by RNA sequencing analysis; format: functional, cell-based
[14] = tested on: HepG2; test: Antiproliferative activity against human HepG2 cells incubated for 168 hrs by SRB method; format: functional, cell-based; settings: HepG2, 168 h
[15] = tested on: A2780; test: Induction of apoptosis in human A2780 cells assessed as early apoptotic cells at 200 nM incubated for 96 hrs by Annexin-V/FITC and PI staining based flow cytometry analysis (reference value: 14.14%); format: functional
[16] = tested on: NCI-H3122; test: Antiproliferative activity against human NCI-H3122 cells incubated for 168 hrs by SRB method; format: functional, cell-based; settings: NCI-H3122, 168 h
[17] = tested on: NCI-H1975; test: Antiproliferative activity against human NCI-H1975 cells incubated for 168 hrs by SRB method; format: functional, cell-based; settings: NCI-H1975, 168 h
[18] = tested on: A2780; test: Induction of apoptosis in human A2780 cells assessed as early apoptotic cells at 50 nM incubated for 96 hrs by Annexin-V/FITC and PI staining based flow cytometry analysis (reference value: 14.14%); format: functional
[19] = tested on: A2780; test: Inhibition of mitochondrial transcript in human A2780 cells assessed as decrease in CYTB expression by RT-qPCR analysis; format: functional, cell-based
[20] = tested on: A2780; test: Inhibition of MT-ND6 expression in human A2780 cells at 100 nM incubated for 12 hrs by RNA sequencing analysis; format: functional, cell-based
[21] = tested on: A2780; test: Antitumor activity against human A2780 cells xenografted in BALB/c nude mouse model assessed as reduction in mitochondrial DNA transcript level at 50 to 100 mg/kg, po administered daily; format: functional, organism-based; settings: dose 50-100 mg/kg
[22] = Toxicity in Balb/c mouse assessed as effect on spleen at 100 mg/kg by H and E staining based analysis; format: organism-based; settings: in vivo
[23] = target: Cytochrome P450 2D6 (Homo sapiens, UniProt P10635); test: Inhibition of CYP2D6 (unknown origin) using bufuralol as substrate in presence of NADPH by LC/MS/MS analysis; format: ADME
Sequence of Cytochrome P450 2D6 (P10635 whole entry): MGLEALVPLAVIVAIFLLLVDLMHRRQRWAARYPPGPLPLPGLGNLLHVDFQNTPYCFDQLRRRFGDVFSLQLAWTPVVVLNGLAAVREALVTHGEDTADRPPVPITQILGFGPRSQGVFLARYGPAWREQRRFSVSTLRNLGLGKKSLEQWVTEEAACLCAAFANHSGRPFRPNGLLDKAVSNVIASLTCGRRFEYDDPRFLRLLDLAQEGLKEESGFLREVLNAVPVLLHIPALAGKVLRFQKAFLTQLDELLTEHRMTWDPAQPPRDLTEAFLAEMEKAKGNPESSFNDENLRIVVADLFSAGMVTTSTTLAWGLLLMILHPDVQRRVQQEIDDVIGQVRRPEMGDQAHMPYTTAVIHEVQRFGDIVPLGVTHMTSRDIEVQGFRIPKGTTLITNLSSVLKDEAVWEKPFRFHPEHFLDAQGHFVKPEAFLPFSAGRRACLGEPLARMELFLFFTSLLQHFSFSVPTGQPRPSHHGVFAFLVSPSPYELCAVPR

[24] = target: Cytochrome P450 2C9 (Homo sapiens, UniProt P11712); test: Inhibition of CYP2C9 (unknown origin) using diclofenac as substrate in presence of NADPH by LC/MS/MS analysis; format: ADME
Sequence of Cytochrome P450 2C9 (P11712 whole entry): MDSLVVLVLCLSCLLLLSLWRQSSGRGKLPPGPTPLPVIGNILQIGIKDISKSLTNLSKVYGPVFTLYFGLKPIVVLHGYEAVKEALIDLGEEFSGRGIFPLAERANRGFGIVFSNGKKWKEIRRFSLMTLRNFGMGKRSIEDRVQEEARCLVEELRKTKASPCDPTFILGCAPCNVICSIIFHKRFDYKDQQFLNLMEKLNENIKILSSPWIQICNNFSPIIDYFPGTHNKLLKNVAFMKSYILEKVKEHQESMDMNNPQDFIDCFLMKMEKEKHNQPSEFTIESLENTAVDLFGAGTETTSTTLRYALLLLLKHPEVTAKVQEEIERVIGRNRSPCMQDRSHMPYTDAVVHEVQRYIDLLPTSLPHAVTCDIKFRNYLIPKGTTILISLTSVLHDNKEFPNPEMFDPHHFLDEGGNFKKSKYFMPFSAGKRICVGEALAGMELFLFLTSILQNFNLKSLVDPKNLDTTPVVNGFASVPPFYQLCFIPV

[25] = tested on: A2780; test: Inhibition of MT-CO1 expression in human A2780 cells at 100 nM incubated for 12 hrs by RNA sequencing analysis; format: functional, cell-based
[26] = tested on: A2780; test: Effect on SDHB level in human A2780 cells at upto 500 nM by Western blot analysis; format: functional, cell-based
[27] = AUC (0 to infinity) in ICR mouse at 1 mg/kg, iv measured upto 24 hrs by LC-MS/MS analysis; format: ADME, organism-based; parameters: time < 24 hrs, dose 1 mg/kg, route iv; settings: in vivo
[28] = tested on: A2780; test: Inhibition of colony formation in human A2780 cells assessed as decrease in colony quantity at 10 nM incubated for 14 days by crystal violet staining based analysis; format: functional, cell-based; settings: time 14.0 day
[29] = tested on: A2780; test: Inhibition of MT-ATP8 expression in human A2780 cells at 100 nM incubated for 12 hrs by RNA sequencing analysis; format: functional, cell-based
[30] = MRT in ICR mouse at 10 mg/kg, po measured upto 24 hrs by LC-MS/MS analysis; format: ADME, organism-based; settings: in vivo
[31] = tested on: A2780; test: Induction of autophagy in human A2780 cells assessed as change in MDC labeled fluorescence at upto 500 nM measured after 96 hrs by microscopic analysis; format: functional, cell-based
[32] = Apparent permeability across basolateral side to apical side in human Caco-2 cells at 3 uM incubated for 2 hrs by LC-MS/MS analysis; format: ADME, cell-based
[33] = tested on: A2780; test: Inhibition of mitochondrial transcript in human A2780 cells assessed as decrease in ND1 expression by RT-qPCR analysis; format: functional, cell-based
[34] = tested on: A2780; test: Effect on beta-actin mRNA level in human A2780 cells by RT-qPCR analysis; format: functional, cell-based
[35] = Toxicity in Balb/c mouse assessed as effect on body weight loss at 50 to 100 mg/kg, po measured after 27 days; format: organism-based; settings: in vivo, 648 h, dose 50-100 mg/kg, time 27 day
[36] = MRT in ICR mouse at 1 mg/kg, iv measured upto 24 hrs by LC-MS/MS analysis; format: ADME, organism-based; settings: in vivo
[37] = tested on: A2780; test: Inhibition of MT-ND3 expression in human A2780 cells at 100 nM incubated for 12 hrs by RNA sequencing analysis; format: functional, cell-based
[38] = Acute toxicity in Balb/c mouse assessed as effect on kidney 100 mg/kg measured after 27 days by H and E staining based analysis; format: organism-based; settings: in vivo, 648 h, time 27 day
[39] = tested on: A549; test: Antiproliferative activity against human A549 cells incubated for 168 hrs by SRB method; format: functional, cell-based; settings: A549, 168 h
[40] = Antiproliferative activity against human PBMC cells incubated for 168 hrs by SRB method; format: functional, cell-based
[41] = tested on: A2780; test: Inhibition of mitochondrial transcript in human A2780 cells incubated for 12 hrs followed by compound removal and measured after 12 hrs by RT-qPCR analysis; format: functional, cell-based
[42] = tested on: A2780; test: Effect on 18S mRNA level in human A2780 cells by RT-qPCR analysis; format: functional, cell-based

Cc1ccc(-c2cc(=O)oc3cc(O[C@H](C)C(=O)N4CC5CCC(C4)N5C)ccc23)c(C)c1
Activity [1]: inactive | Activity [2]: Dose-Dependent Effect | Activity [3]: 4.01% | Activity [4]: Non-Toxic | Activity [5]: Active | Activity [6]: inactive | Activity [7]: Dose-Dependent Effect | Activity [8]: inactive | Activity [9]: inactive | Activity [10]: 3.16% | Activity [11]: Active | inhibition [12]: Active | inhibition [13]: Active | IC50 [14]: 152 nM | Activity [15]: 0.73% | IC50 [16]: > 10000 nM | IC50 [17]: 108 nM | Activity [18]: 2.22% | inhibition [19]: Active | inhibition [20]: Active | Activity [21]: Active | Activity [22]: Non-Toxic | IC50 [23]: > 40000 nM | IC50 [24]: 34700 nM | inhibition [25]: Active | Activity [26]: inactive | AUC(0-inf) [27]: 439 ng·h/mL | inhibition [28]: Active | inhibition [29]: Active | MRT [30]: 3.3 h | Activity [31]: inactive | Papp B→A at 2 h, 3 µM [32]: 8.3 ×10⁻⁶ cm/s | inhibition [33]: Active | Activity [34]: inactive | Activity [35]: Non-Toxic | MRT [36]: 2.66 h | inhibition [37]: Active | Activity [38]: Non-Toxic | IC50 [39]: 721 nM | IC50 [40]: > 50000 nM | inhibition [41]: inactive | Activity [42]: inactive
